Assay results taken from ChEMBL document CHEMBL5505999, “Discovery of anti-inflammatory agents from 3, 4-dihydronaphthalene-1(2H)-one derivatives by inhibiting NLRP3 inflammasome activation” (Eur J Med Chem, 2024).
The source made the active and inactive calls. The calls are words filed in the database; no cut-off is given here.

Assays:
[1] = system: RAW264.7; test: Anti-inflammatory activity in mouse RAW264.7 cells assessed as inhibition of LPS-induced IL-18 production pretreated with compound for 2 hrs followed by LPS addition for 22 hrs and measured 30 mins after LPS addition by ELISA; assay type: functional, cell-based; details: dose 1.5-6 µM, time 24.5 hrs
[2] = Cytotoxicity against mouse RAW264.7 cells assessed as survival rate at 2.5 uM incubated overnight by CCK-8 assay relative to control; assay type: toxicity, cell-based; details: read-out: Survival
[3] = system: RAW264.7; test: Anti-inflammatory activity in mouse RAW264.7 cells assessed as inhibition of LPS-induced TNF-alpha production at 2.5 uM pretreated with compound for 2 hrs followed by LPS addition and measured after 22 hrs by ELISA relative to control; assay type: functional; details: time 24 hrs
[4] = system: RAW264.7; test: Anti-inflammatory activity in mouse RAW264.7 cells assessed as inhibition of LPS-induced IL-6 production at 2.5 uM pretreated with compound for 2 hrs followed by LPS addition and measured after 22 hrs by ELISA relative to control; assay type: functional; details: time 24 hrs
[5] = system: RAW264.7; test: Anti-inflammatory activity in mouse RAW264.7 cells assessed as inhibition of LPS-induced TNF-alpha production pretreated with compound for 2 hrs followed by LPS addition and measured after 22 hrs by ELISA; assay type: functional, cell-based; details: dose 1.5-6 µM, time 24.0 hrs
[6] = system: RAW264.7; test: Anti-inflammatory activity in mouse RAW264.7 cells assessed as inhibition of LPS-induced IL-6 production pretreated with compound for 2 hrs followed by LPS addition and measured after 22 hrs by ELISA; assay type: functional, cell-based; details: dose 1.5-6 µM, time 24.0 hrs
[7] = system: RAW264.7; test: Anti-inflammatory activity in mouse RAW264.7 cells assessed as inhibition of LPS-induced IL-1beta production pretreated with compound for 2 hrs followed by LPS addition for 22 hrs and measured 30 mins after LPS addition by ELISA; assay type: functional, cell-based; details: dose 1.5-6 µM, time 24.5 hrs
[8] = target: NACHT, LRR and PYD domains-containing protein 3 (Mus musculus) (UniProt Q8R4B8); test: Inhibition of NLRP3 inflammasome activation in LPS-induced mouse RAW264.7 cells assessed as reduction in ROS production by measuring intracellular ROS level at 1.5 uM incubated for 24 hrs by DCFH-DA staining based flow cytometric analysis (reference value: 42.0%); assay type: cell-based; design: scale not given: the % may be the effect or the level left
[9] = target: NACHT, LRR and PYD domains-containing protein 3 (Mus musculus) (UniProt Q8R4B8); test: Inhibition of NLRP3 inflammasome activation in LPS-induced mouse RAW264.7 cells assessed as reduction in ROS production by measuring intracellular ROS level at 3.0 uM incubated for 24 hrs by DCFH-DA staining based flow cytometric analysis (reference value: 42.0%); assay type: cell-based; design: scale not given: the % may be the effect or the level left
[10] = target: NACHT, LRR and PYD domains-containing protein 3 (Mus musculus) (UniProt Q8R4B8); test: Inhibition of NLRP3 inflammasome activation in LPS-induced mouse RAW264.7 cells assessed as reduction in ROS production by measuring intracellular ROS level at 6.0 uM incubated for 24 hrs by DCFH-DA staining based flow cytometric analysis (reference value: 42.0%); assay type: cell-based; design: scale not given: the % may be the effect or the level left
[11] = target: NACHT, LRR and PYD domains-containing protein 3 (Mus musculus) (UniProt Q8R4B8); test: Inhibition of NLRP3 inflammasome activation in LPS-induced mouse RAW264.7 cells assessed as reduction in NO production incubated for 24 hrs by Griess reagent based assay; assay type: cell-based; details: dose 1.5-6 µM
[12] = Induction of apoptosis in mouse RAW264.7 cells assessed as viable cells at 1.5 uM by Annexin V-FITC/PI staining based flow cytometric analysis (reference value: 96.4%); assay type: toxicity, cell-based; details: read-out: Activity
[13] = system: RAW264.7; test: Induction of apoptosis in mouse RAW264.7 cells assessed as apoptotic cells at 1.5 uM by Annexin V-FITC/PI staining based flow cytometric analysis (reference value: 1.9%); assay type: toxicity, cell-based; details: raw264.7, 1.5 µM
[14] = Induction of apoptosis in mouse RAW264.7 cells assessed as viable cells at 3.0 uM by Annexin V-FITC/PI staining based flow cytometric analysis (reference value: 96.4%); assay type: toxicity, cell-based; details: read-out: Activity
[15] = system: RAW264.7; test: Induction of apoptosis in mouse RAW264.7 cells assessed as apoptotic cells at 3.0 uM by Annexin V-FITC/PI staining based flow cytometric analysis (reference value: 1.9%); assay type: toxicity, cell-based; details: raw264.7, 3 µM
[16] = Induction of apoptosis in mouse RAW264.7 cells assessed as viable cells at 6.0 uM by Annexin V-FITC/PI staining based flow cytometric analysis (reference value: 96.4%); assay type: toxicity, cell-based; details: read-out: Activity
[17] = system: RAW264.7; test: Induction of apoptosis in mouse RAW264.7 cells assessed as apoptotic cells at 6.0 uM by Annexin V-FITC/PI staining based flow cytometric analysis (reference value: 1.9%); assay type: toxicity, cell-based; details: raw264.7, 6 µM
[18] = target: Transcription factor p65 (Mus musculus) (UniProt Q04207); test: Inhibition of NF-kappaB p65 nuclear translocation in LPS-induced mouse RAW264.7 cells assessed as increase in p65 subunits in cytoplasm at 6.0 uM preincubated with compound for 2 hrs followed by LPS addition and measured after 2 hrs by DAPI staining based Zeiss laser confocal microscopic analysis; assay type: cell-based; details: time 4.0 hrs
[19] = system: RAW264.7; test: Inhibition of NF-kappaB signaling pathway in mouse RAW264.7 cells assessed as reduction in p65 phosphorylation preincubated with compound for 2 hrs followed by LPS addition and measured after 22 hrs by Western blot analysis; assay type: cell-based; details: dose 1.5-6 µM, time 24.0 hrs
[20] = system: RAW264.7; test: Inhibition of NF-kappaB signaling pathway in mouse RAW264.7 cells assessed as reduction in IkappaBalpha phosphorylation preincubated with compound for 2 hrs followed by LPS addition and measured after 22 hrs by Western blot analysis; assay type: cell-based; details: dose 1.5-6 µM, time 24.0 hrs
[21] = target: NACHT, LRR and PYD domains-containing protein 3 (Mus musculus) (UniProt Q8R4B8); test: Inhibition of NLRP3 inflammasome activation in mouse RAW264.7 cells assessed as reduction in NLRP3 expression at 1.5 to 6.0 uM preincubated with compound for 2 hrs followed by LPS addition and measured after 30 mins by Western blot analysis; assay type: cell-based; details: dose 1.5-6 µM, time 2.5 hrs
[22] = target: NACHT, LRR and PYD domains-containing protein 3 (Mus musculus) (UniProt Q8R4B8); test: Inhibition of NLRP3 inflammasome activation in mouse RAW264.7 cells assessed as reduction in ASC expression at 1.5 to 6.0 uM preincubated with compound for 2 hrs followed by LPS addition and measured after 30 mins by Western blot analysis; assay type: cell-based; details: dose 1.5-6 µM, time 2.5 hrs

Chain of NACHT, LRR and PYD domains-containing protein 3 (Mus musculus) (Q8R4B8 whole entry, the tested form may be a part): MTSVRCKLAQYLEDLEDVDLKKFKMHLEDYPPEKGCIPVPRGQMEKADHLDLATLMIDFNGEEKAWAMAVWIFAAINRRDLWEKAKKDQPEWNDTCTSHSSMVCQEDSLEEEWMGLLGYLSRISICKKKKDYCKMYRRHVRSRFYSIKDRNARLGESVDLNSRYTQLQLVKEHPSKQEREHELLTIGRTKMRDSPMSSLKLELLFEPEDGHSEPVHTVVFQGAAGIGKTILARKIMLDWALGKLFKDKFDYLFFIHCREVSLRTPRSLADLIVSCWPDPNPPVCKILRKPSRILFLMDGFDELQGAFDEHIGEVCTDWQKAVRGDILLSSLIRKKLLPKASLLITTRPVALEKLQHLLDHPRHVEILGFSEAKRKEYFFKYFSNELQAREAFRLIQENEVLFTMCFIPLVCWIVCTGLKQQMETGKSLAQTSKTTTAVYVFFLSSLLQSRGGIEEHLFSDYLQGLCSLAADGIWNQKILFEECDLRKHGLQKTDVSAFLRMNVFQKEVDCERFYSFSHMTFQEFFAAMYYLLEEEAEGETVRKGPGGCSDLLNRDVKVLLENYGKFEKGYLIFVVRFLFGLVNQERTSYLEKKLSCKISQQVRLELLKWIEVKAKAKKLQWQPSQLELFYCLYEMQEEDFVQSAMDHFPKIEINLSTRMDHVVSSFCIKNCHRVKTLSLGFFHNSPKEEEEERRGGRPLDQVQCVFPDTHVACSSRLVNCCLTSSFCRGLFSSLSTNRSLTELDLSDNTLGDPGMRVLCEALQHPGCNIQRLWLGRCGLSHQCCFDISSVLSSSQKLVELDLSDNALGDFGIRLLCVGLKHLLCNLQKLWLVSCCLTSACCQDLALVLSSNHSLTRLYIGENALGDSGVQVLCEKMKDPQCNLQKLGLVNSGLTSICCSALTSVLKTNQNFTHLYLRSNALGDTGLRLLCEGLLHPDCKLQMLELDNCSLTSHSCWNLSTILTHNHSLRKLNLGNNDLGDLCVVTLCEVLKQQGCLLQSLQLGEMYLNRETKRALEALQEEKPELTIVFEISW
Chain of Transcription factor p65 (Mus musculus) (Q04207 whole entry): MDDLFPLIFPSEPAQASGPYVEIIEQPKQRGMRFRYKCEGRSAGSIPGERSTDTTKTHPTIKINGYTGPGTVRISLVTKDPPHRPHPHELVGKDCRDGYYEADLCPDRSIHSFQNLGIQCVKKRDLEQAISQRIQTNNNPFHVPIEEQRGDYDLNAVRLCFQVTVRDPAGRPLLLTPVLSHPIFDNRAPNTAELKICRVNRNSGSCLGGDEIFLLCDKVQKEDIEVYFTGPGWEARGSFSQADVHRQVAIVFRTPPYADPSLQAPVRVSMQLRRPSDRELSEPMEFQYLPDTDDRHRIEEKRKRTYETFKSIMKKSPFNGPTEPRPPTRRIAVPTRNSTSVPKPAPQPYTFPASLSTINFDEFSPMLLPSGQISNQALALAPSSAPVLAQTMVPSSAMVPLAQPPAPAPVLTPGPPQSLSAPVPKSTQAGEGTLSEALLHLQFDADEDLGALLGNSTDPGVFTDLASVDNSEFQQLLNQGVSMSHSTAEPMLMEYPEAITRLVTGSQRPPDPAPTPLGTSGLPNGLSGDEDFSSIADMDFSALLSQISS

SMILES: CN1CCN(c2ccc(/C=C3\CCc4ccc(Br)cc4C3=O)nc2)CC1
- Activity [1]: Dose-Dependent Effect
- viability at 2.5 µM [2]: 108%
- inhibition at 2.5 µM [3]: 81.4%
- inhibition at 2.5 µM [4]: 69.2%
- Activity [5]: Dose-Dependent Effect
- Activity [6]: Dose-Dependent Effect
- Activity [7]: Dose-Dependent Effect
- Activity [8]: 36.4%
- Activity [9]: 31.8%
- Activity [10]: 19.9%
- inhibition [11]: Dose-Dependent Effect
- viability at 1.5 µM [12]: 94.4%
- Activity [13]: 3.8%
- viability at 3 µM [14]: 92.8%
- Activity [15]: 5.6%
- viability at 6 µM [16]: 91.6%
- Activity [17]: 6.8%
- inhibition [18]: Active
- inhibition [19]: Dose-Dependent Effect
- inhibition [20]: Dose-Dependent Effect
- inhibition [21]: Active
- inhibition [22]: Active
